Data: patent publication US6825180B2, “Pyridopyrimidine compounds and their uses” (Cell Therapeutics, Inc., priority 2001, dated 2004)
Where “and” joins values, the source holds several entries; their conditions need not be identical. Equal values may be shown once. Where a name gives a salt, the structure may show the parent alone.

How the values were obtained:
[1] = tested on: IL-12 signaling; assay: IL-12 dependent in vitro T-helper cell (Th1) differentiation assay; type: cell-based; settings: inhibition of IL-12 induced Th1 differentiation as defined by IFN-γ production upon secondary stimulation with anti-CD3 alone, splenic T cells, seven days culture
Procedure: This example illustrates the inventive compounds' ability to suppress Th1 differentiation in vitro by blocking IL-12 signaling. The compounds from Examples 1, 2, 6, and 7 were tested in an IL-12 dependent in vitro T-helper cell differentiation assay as described in LeGross et al., J. Exp. Med., 172:921-929 (1990). Recombinant IL-12 was used to induce Th1 differentiation. Splenic T cells were purified utilizing the antibodies RA3-3A1/6.1 (anti-B220), J11d and MAR18.5 (anti-rat kappa chain) to deplete the B cells by magnetic bead separation, as described in Coon et al, J. Immuno., 163:6567-6574 (1989). Splenic T cells were stimulated at 5×10^5/ml with insoluble anti-CD3 alone (145-2C11, Pharmingen, San Diego, Calif.), or anti-CD3 and 5 U/ml IL-12, with and without each inventive compound. After seven days, equal numbers of viable cells were restimulated for 24 hours with anti-CD3 without the inventive compounds, and the supernatants were collected and assayed for IFN—γ production. IFN-γ and IL-4 levels were measured by ELISA test specific for IFN-γ and IL-4.
Th1 differentiation was induced by culturing anti-CD3 stimulated T cells in the presence of exogenous IL-12. […] It was observed that the presence of the tested compounds during T cell activation inhibited Th1 differentiation, which had been enhanced by the addition of exogenous IL-12. The values in the “IC50 μM” column were determined by measuring the inhibition of IL-12 induced Th1 differentiation as defined by IFN-γ production upon secondary stimulation with anti-CD3 alone. None of the compounds affected the viability or recovery of T cells after one week of culture.

[2] = tested on: IL-12 signaling; assay: Modified acute assay; type: cell-based; settings: T-cell, 72 h, purified splenic T cells, anti-CD3 or lectin stimulation, Interferon-γ by ELISA
Procedure: The compounds of Examples 3-10 were tested in a modified acute assay which is used to screen for compounds that perturb IL-12 signaling. The assay measures the biological effects of compounds on IL-12 signaling during the differentiation of T1 responses rather than the outcome of differentiation, as measured using a T1 Differentiation Assay. Purified splenic T cells were stimulated either by crosslinking their T cell receptors with immobilized anti-CD3 antibody or by binding with a soluble lectin (e.g. Conconavalin A). The cells were incubated for 72 hours after which time supernatants are collected and relative Interferon-γ amounts determined by ELISA. The Modified Acute Assay measured a directed IL-12 response derived from a population of cells in a variety of activation states and can be thought of as a more stochastic response.

| SMILES | IC50 ([1]; T-cell, 168 h) | IC50 [1] | IC50 [2] | IC50 ([1]; Acetic Acid Salt) |
| --- | --- | --- | --- | --- |
| Cc1cc(=O)c2c(=O)n(CCCC[C@@H](C)O)c(=O)n(C)c2[nH]1 [Example 1, (R)-1,7-Dimethyl-3-(5-hydroxyhexyl)pyrido[2,3-d]pyrimidine-2,4,5(1H,3H,8H)-trione] | 19 µM | 24 µM and 28 µM |  |  |
| CO[C@H](C)CCCCn1c(=O)c2c(=O)cc(C)[nH]c2n(C)c1=O [Example 2, (R)-1,7-Dimethyl-3-(5-methoxyhexyl)pyrido[2,3-d]pyrimidine-2,4,5(1H,3H,8H)-trione] | 7 µM |  |  |  |
| CNc1cc(C)nc2c1c(=O)n(CCCC[C@@H](C)O)c(=O)n2C [Example 3, (R)-1,7-Dimethyl-3-(5-hydroxyhexyl)-5-(N-methylamino)pyrido[2,3-d]pyrimidine-2,4(1H,3H)-dione] |  |  | < 10 µM |  |
| Cc1cc(=O)c2c(=O)n(CCCC[C@@H](C)O)c(=O)n(C)c2n1Cc1ccccc1 [Example 5, (R)-8-Benzyl-1,7-dimethyl-3-(5-hydroxyhexyl)pyrido[2,3-d]pyrimidine-2,4,5(1H,3H,8H)-trione] |  |  | 8 µM |  |
| Cc1cc(=O)c2c(=O)n(CCCC[C@@H](C)N(C)C)c(=O)n(C)c2[nH]1 [Example 6, (R)-1,7-Dimethyl-3-(5-(N,N-dimethylamino)hexyl)pyrido[2,3-d]pyrimidine-2,4,5(1H,3H,8H)-trione, Acetic Acid Salt] | 14 µM |  | 9 µM | 16 µM |
| Cc1cc(N(C)C)c2c(=O)n(CCCC[C@@H](C)N(C)C)c(=O)n(C)c2n1 [Example 7, (R)-1,7-Dimethyl-5-(N,N-dimethylamino)-3-(5-(N,N-dimethylamino)hexyl)pyrido[2,3-d]pyrimidine-2,4(1H,3H)dione] | > 40 µM |  | 26 µM |  |
| Cc1cc(C)c2c(=O)n(CCCC[C@@H](C)O)c(=O)n(C)c2n1 [Example 8, (R)-3-(5-Hydroxyhexyl)-1,5,7-trimethylpyrido[2,3-d]pyrimidine-2,4(1H,3H)-dione] |  |  | 33 µM |  |
| Cc1cc(=O)[nH]c2c1c(=O)n(CCCC[C@@H](C)O)c(=O)n2C [Example 9, (R)-1,5-Dimethyl 3-(5-hydroxyhexyl)pyrido[2,3-d]pyrimidine-2,4,7(1H,3H,8H)-trione] |  |  | > 40 µM |  |
| Cc1cc(N(C)C)nc2c1c(=O)n(CCCC[C@@H](C)O)c(=O)n2C [Example 10, (R)-1,5-Dimethyl-7-(N,N-dimethylamino)-3-(5-hydroxyhexyl)-2,4-pyrido[2,3-d]pyrimidine-2,4(1H,3H)-dione] |  |  | 6 µM |  |
